Laboratory results from patent US9328083B2, “2-aminated methylene or 2-esterified methylene tanshinone derivatives, and preparation method and application thereof” (HANGZHOU BENSHENG PHARMACEUTICAL CO., LTD., priority 2011, dated 2016).
Converted amounts (≈) assume the structure as drawn.

How the values were obtained:
[1] = system: H9 (acute lymphoblastic leukemia, ALL); assay: MTT growth inhibition of leukemia cells, 72 h; format: cell-based, human; conditions: Homo sapiens, H9, 72 h; for IC50: read-out: IC50; for IC90: read-out: IC90
How it was run: (§1)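 Test compounds, dissolved in DMSO and further diluted with culture medium, go onto cells seeded the day before at 6000 per well in RPMI-1640/10% FBS. Plates stay 72 h in a 5% CO2 incubator at 37 °C, and cell viability is then assessed by the MTT method.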

[2] = system: Jurkat (acute lymphoblastic leukemia, ALL); assay: MTT growth inhibition of leukemia cells, 72 h; format: cell-based, human; conditions: Homo sapiens, 72 h; for IC50: read-out: IC50; for IC90: read-out: IC90
How it was run: as §1

[3] = system: K562/adr (drug-resistant, chronic myeloid leukemia, CML); assay: MTT growth inhibition of leukemia cells, 72 h; format: cell-based, human; conditions: Homo sapiens, K562/Adr; for IC50: read-out: IC50; for IC90: read-out: IC90
How it was run: as §1

[4] = system: Kasumi-1 (acute myeloid leukemia M2 type, AML-M2); assay: MTT growth inhibition of leukemia cells, 72 h; format: cell-based, human; conditions: Homo sapiens, Kasumi-1, 72 h; for IC50: read-out: IC50; for IC90: read-out: IC90
How it was run: as §1

[5] = system: NB4 (acute promyelocytic leukemia, AML); assay: MTT growth inhibition of leukemia cells, 72 h; format: cell-based, human; conditions: Homo sapiens, NB4, 72 h; for IC50: read-out: IC50; for IC90: read-out: IC90
How it was run: as §1

[6] = system: RPMI8226 (multiple myeloma); assay: MTT growth inhibition of multiple myeloma cells, 72 h; format: cell-based, human; conditions: Homo sapiens, RPMI 8226, 72 h; for IC50: read-out: IC50; for IC90: read-out: IC90
How it was run: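 Viability read by MTT after 72 h at 37° C, 5% CO2: compounds from a 10 mg/mL DMSO stock were diluted in medium and added at several concentrations to 6000 RPMI8226 cells per well in 1640 medium plus 10% FBS.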

[7] = system: A549 (human lung cancer); assay: MTT growth inhibition of human solid tumor cells, 72 h; format: cell-based; conditions: Homo sapiens, A549, 72 h; for IC50: read-out: IC50; for IC90: read-out: IC90
How it was run: (§2)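 Seeded cells (4000/well) pre-grown 24 h in high-glucose DMEM with 10% FBS at 37° C, 5% CO2, then exposed to graded derivative concentrations.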

[8] = system: Becap37 (human breast cancer cell); assay: as above; format: cell-based; conditions: Homo sapiens, Becap-37, 72 h; for IC50: read-out: IC50; for IC90: read-out: IC90
How it was run: as §2

[9] = system: CNE (nasopharyngeal carcinoma cell); assay: as above; format: cell-based; conditions: Homo sapiens; for IC50: read-out: IC50; for IC90: read-out: IC90
How it was run: as §2

[10] = system: CaES-17 (esophageal cancer cell); assay: as above; format: cell-based; conditions: Homo sapiens, CaEs17, CaEs-17, 72 h; for IC50: read-out: IC50; for IC90: read-out: IC90
How it was run: as §2

[11] = system: Hela (human cervical cancer cell); assay: as above; format: cell-based; conditions: Homo sapiens, HeLa, 72 h; for IC50: read-out: IC50; for IC90: read-out: IC90
How it was run: as §2

[12] = system: Hep G2 (human liver cancer cell); assay: as above; format: cell-based; conditions: Homo sapiens, HepG2, Hep G2, 72 h; for IC50: read-out: IC50; for IC90: read-out: IC90
How it was run: as §2

[13] = system: Hep-2 (laryngeal carcinoma); assay: as above; format: cell-based; conditions: Homo sapiens, HEp-2, 72 h; for IC50: read-out: IC50; for IC90: read-out: IC90
How it was run: as §2

[14] = system: MG63 (osteosarcoma); assay: as above; format: cell-based; conditions: for IC50 / IC90: Homo sapiens, MG-63, 72 h; for IC50: read-out: IC50; for IC90: read-out: IC90
How it was run: as §2

[15] = system: MGC 803 (human gastric cancer cell); assay: as above; format: cell-based; conditions: Homo sapiens, MGC-803, 72 h; for IC50: read-out: IC50; for IC90: read-out: IC90
How it was run: as §2

[16] = system: PANC-1 (pancreatic cancer); assay: as above; format: cell-based; conditions: Homo sapiens, PANC-1, 72 h; for IC50: read-out: IC50; for IC90: read-out: IC90
How it was run: as §2

[17] = system: PC-3 (prostate cancer); assay: as above; format: cell-based; conditions: Homo sapiens, PC-3, 72 h; for IC50: read-out: IC50; for IC90: read-out: IC90
How it was run: as §2

[18] = system: RKO (human colon adenocarcinoma cell); assay: as above; format: cell-based; conditions: Homo sapiens; for IC50: read-out: IC50; for IC90: read-out: IC90
How it was run: as §2

[19] = system: SK-OV-3 (ovarian cancer cell); assay: as above; format: cell-based; conditions: Homo sapiens, SK-OV-3, 72 h; for IC50: read-out: IC50; for IC90: read-out: IC90
How it was run: as §2

[20] = system: U87 MG (malignant glioma cell); assay: as above; format: cell-based; conditions: Homo sapiens, U-87 MG, U87-MG, 72 h; for IC50: read-out: IC50; for IC90: read-out: IC90
How it was run: as §2

CCCCNCc1oc2c(c1C)C(=O)C(=O)c1c-2ccc2c(C)cccc12 [BS-TA-B10]
IC50 [1]: 6 µg/mL (≈ 16.6 µM) | IC90 [1]: > 16 µg/mL | IC50 [2]: > 16 µg/mL | IC90 [2]: > 16 µg/mL | IC50 [3]: 0.76 µg/mL (≈ 2.1 µM) | IC90 [3]: 1.8 µg/mL (≈ 4.98 µM) | IC50 [4]: 0.4 µg/mL (≈ 1.11 µM) | IC90 [4]: 0.92 µg/mL (≈ 2.55 µM) | IC50 [5]: 5.79 µg/mL (≈ 16 µM) | IC90 [5]: 15.4 µg/mL (≈ 42.7 µM) | IC50 [6]: 15.8 µg/mL (≈ 43.8 µM) | IC90 [6]: > 16 µg/mL | IC50 [7]: 1.28 µg/mL (≈ 3.54 µM) | IC90 [7]: 6 µg/mL (≈ 16.6 µM) | IC50 [8]: > 16 µg/mL | IC90 [8]: > 16 µg/mL | IC50 [9]: > 16 µg/mL | IC90 [9]: > 16 µg/mL | IC50 [10]: > 16 µg/mL | IC90 [10]: > 16 µg/mL | IC50 [11]: 15.6 µg/mL (≈ 43 µM) | IC90 [11]: > 16 µg/mL | IC50 [12]: > 16 µg/mL | IC90 [12]: > 16 µg/mL | IC50 [13]: 15.8 µg/mL (≈ 43.6 µM) | IC90 [13]: > 16 µg/mL | IC50 [14]: > 16 µg/mL | IC90 [14]: > 16 µg/mL | IC50 [15]: > 16 µg/mL | IC90 [15]: > 16 µg/mL | IC50 [16]: 0.88 µg/mL (≈ 2.43 µM) | IC90 [16]: 5.82 µg/mL (≈ 16.1 µM) | IC50 [17]: > 16 µg/mL | IC90 [17]: > 16 µg/mL | IC50 [18]: 5.47 µg/mL (≈ 15.1 µM) | IC90 [18]: > 16 µg/mL | IC50 [19]: > 16 µg/mL | IC90 [19]: > 16 µg/mL | IC50 [20]: > 16 µg/mL | IC90 [20]: > 16 µg/mL

Cc1c(CN(C)Cc2ccccc2)oc2c1C(=O)C(=O)c1c-2ccc2c(C)cccc12 [BS-TA-B01]
IC50 [1]: 0.7 µg/mL (≈ 1.71 µM) | IC90 [1]: 2.3 µg/mL (≈ 5.62 µM) | IC50 [2]: 0.96 µg/mL (≈ 2.34 µM) | IC90 [2]: 5.3 µg/mL (≈ 12.9 µM) | IC50 [3]: 1.13 µg/mL (≈ 2.76 µM) | IC90 [3]: 2.95 µg/mL (≈ 7.2 µM) | IC50 [4]: 0.66 µg/mL (≈ 1.61 µM) | IC90 [4]: 1.91 µg/mL (≈ 4.66 µM) | IC50 [5]: 0.26 µg/mL (≈ 0.635 µM) | IC90 [5]: 0.96 µg/mL (≈ 2.34 µM) | IC50 [6]: 0.52 µg/mL (≈ 1.27 µM) | IC90 [6]: 2.9 µg/mL (≈ 7.08 µM) | IC50 [7]: 1.7 µg/mL (≈ 4.15 µM) | IC90 [7]: 17 µg/mL (≈ 41.5 µM) | IC50 [8]: 0.43 µg/mL (≈ 1.05 µM) | IC90 [8]: 3.73 µg/mL (≈ 9.11 µM) | IC50 [9]: 0.817 µg/mL (≈ 2 µM) | IC90 [9]: 39 µg/mL (≈ 95.2 µM) | IC50 [10]: 0.97 µg/mL (≈ 2.37 µM) | IC90 [10]: 3.81 µg/mL (≈ 9.3 µM) | IC50 [11]: 1.31 µg/mL (≈ 3.2 µM) | IC90 [11]: 16.2 µg/mL (≈ 39.6 µM) | IC50 [12]: 1.25 µg/mL (≈ 3.05 µM) | IC90 [12]: 9.41 µg/mL (≈ 23 µM) | IC50 [13]: 0.88 µg/mL (≈ 2.15 µM) | IC90 [13]: 29.6 µg/mL (≈ 72.3 µM) | IC50 [14]: 0.38 µg/mL (≈ 0.928 µM) | IC90 [14]: 14.9 µg/mL (≈ 36.5 µM) | improvement of anti-MG63 activity as compared with tanshinone I ([14]; MG63, vs tanshinone I): ~3 fold | IC50 [15]: 0.79 µg/mL (≈ 1.93 µM) | IC90 [15]: 7.25 µg/mL (≈ 17.7 µM) | IC50 [16]: 0.81 µg/mL (≈ 1.98 µM) | IC90 [16]: 16 µg/mL (≈ 39.1 µM) | IC50 [17]: 1.83 µg/mL (≈ 4.47 µM) | IC90 [17]: 16 µg/mL (≈ 39.1 µM) | IC50 [18]: 0.17 µg/mL (≈ 0.415 µM) | IC90 [18]: 16 µg/mL (≈ 39.1 µM) | IC50 [19]: 5.41 µg/mL (≈ 13.2 µM) | IC90 [19]: 22.8 µg/mL (≈ 55.8 µM) | IC50 [20]: 0.74 µg/mL (≈ 1.81 µM) | IC90 [20]: 8 µg/mL (≈ 19.5 µM)

Cc1c(CN(C)CCOC(=O)C(C)(C)C)oc2c1C(=O)C(=O)c1c-2ccc2c(C)cccc12 [BS-TA-62]
IC50 [1]: 0.6 µg/mL (≈ 1.34 µM) | IC90 [1]: 1.8 µg/mL (≈ 4.02 µM) | IC50 [2]: 0.89 µg/mL (≈ 1.99 µM) | IC90 [2]: 3.47 µg/mL (≈ 7.75 µM) | IC50 [3]: 0.78 µg/mL (≈ 1.74 µM) | IC90 [3]: 3.48 µg/mL (≈ 7.78 µM) | IC50 [4]: 0.42 µg/mL (≈ 0.938 µM) | IC90 [4]: 0.97 µg/mL (≈ 2.17 µM) | IC50 [5]: 1.42 µg/mL (≈ 3.17 µM) | IC90 [5]: 3.85 µg/mL (≈ 8.6 µM) | IC50 [6]: 2.64 µg/mL (≈ 5.9 µM) | IC90 [6]: 7.68 µg/mL (≈ 17.2 µM) | IC50 [7]: 3.3 µg/mL (≈ 7.37 µM) | IC90 [7]: 21.4 µg/mL (≈ 47.7 µM) | IC50 [8]: 5.04 µg/mL (≈ 11.3 µM) | IC90 [8]: 11.6 µg/mL (≈ 26 µM) | IC50 [9]: 1.8 µg/mL (≈ 4.02 µM) | IC90 [9]: 18 µg/mL (≈ 40.2 µM) | IC50 [10]: 6.33 µg/mL (≈ 14.1 µM) | IC90 [10]: 11.8 µg/mL (≈ 26.4 µM) | IC50 [11]: 9.26 µg/mL (≈ 20.7 µM) | IC90 [11]: > 16 µg/mL | IC50 [12]: 5.41 µg/mL (≈ 12.1 µM) | IC90 [12]: 22.6 µg/mL (≈ 50.4 µM) | IC50 [13]: 6.81 µg/mL (≈ 15.2 µM) | IC90 [13]: > 16 µg/mL | IC50 [14]: 4.88 µg/mL (≈ 10.9 µM) | IC90 [14]: > 16 µg/mL | IC50 [15]: 6.3 µg/mL (≈ 14.1 µM) | IC90 [15]: 14.1 µg/mL (≈ 31.4 µM) | IC50 [16]: 1.42 µg/mL (≈ 3.17 µM) | IC90 [16]: 16 µg/mL (≈ 35.8 µM) | IC50 [17]: 3.21 µg/mL (≈ 7.17 µM) | IC90 [17]: 8.76 µg/mL (≈ 19.6 µM) | IC50 [18]: 0.47 µg/mL (≈ 1.05 µM) | IC90 [18]: > 16 µg/mL | IC50 [19]: > 16 µg/mL | IC90 [19]: > 16 µg/mL | IC50 [20]: 3.2 µg/mL (≈ 7.15 µM) | IC90 [20]: 7.65 µg/mL (≈ 17.1 µM)
